Source: US20110152166A1, “METHOD OF MODULATION OF PROTEIN PHOSPHORYLATION-DEPENDENT CONFORMATIONAL TRANSITIONS WITH LOW MOLECULAR WEIGHT COMPOUNDS” (priority 2006, published 2011)
Ends that are not written are not given here.

Legend:
Assay type in all cases: biochemical
[1] = biological target: T1, PKCζ (Homo sapiens, UniProt Q05513); assay: AGC kinase panel activity assay (MBP); settings: for PKCξ (%) activity: 1% DMSO = 100%
T1 construct: deuteron uptake in a full-length AGC kinase; For this analysis we chose PKCζ; made in house; host or cells: HEK293
T1 sequence (Q05513 1-592): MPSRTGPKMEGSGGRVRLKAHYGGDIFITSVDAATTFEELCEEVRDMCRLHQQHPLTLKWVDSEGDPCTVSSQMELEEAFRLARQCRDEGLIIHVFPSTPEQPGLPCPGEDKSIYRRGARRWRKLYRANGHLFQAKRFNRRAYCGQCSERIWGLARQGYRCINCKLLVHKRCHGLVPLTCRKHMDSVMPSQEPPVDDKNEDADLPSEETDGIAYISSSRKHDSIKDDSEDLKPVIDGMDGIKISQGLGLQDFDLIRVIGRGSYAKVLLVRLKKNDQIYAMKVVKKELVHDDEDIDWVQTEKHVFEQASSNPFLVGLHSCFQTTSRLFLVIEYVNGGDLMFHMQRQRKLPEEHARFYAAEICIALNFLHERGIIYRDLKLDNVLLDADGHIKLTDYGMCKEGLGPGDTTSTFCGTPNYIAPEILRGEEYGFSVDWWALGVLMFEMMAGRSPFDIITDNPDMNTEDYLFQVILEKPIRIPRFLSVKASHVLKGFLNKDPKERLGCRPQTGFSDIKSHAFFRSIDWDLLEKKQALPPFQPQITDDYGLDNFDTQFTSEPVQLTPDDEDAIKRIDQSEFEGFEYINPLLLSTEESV
Method: (§1) Protein kinase activity tests were performed essentially as previously described (Balendran et al., 2000; Biondi et al., 2000; Biondi et al., 2001). Substrates used were either MBP (for PKCζ or polypeptides (Crosstide for PKB, S6K, SGK and PRK2; T308tide for PDK1, and Kemptide for PKA). PKA (Sigma) was measured in the presence of 100 μM cAMP. Alternatively, assays were performed in a 96 well format, aliquots spotted on p81 phosphocellulose papers (Whatmann), washed in 0.01% phosphoric acid, dried, and then exposed and analysed using Phospholmager technology (Storm, Molecular Dynamics). Activity measurements were performed in duplicates with less than 10% difference between duplicate pairs. Experiments were repeated at least twice, although most of the experiments were repeated multiple times, with similar results.
Activity assays for each kinase were performed as described in Materials and Methods in the presence of 1% DMSO (100%). Except PKA, all protein kinases were produced as a GST-fusion. S6K1, PKBα, SGK mutants used were S6K1-T2-[Thr412Glu], PKBa[Ser473Asp] and ΔN-SGK[Ser422Asp].

[2] = biological target: T2, PDK1 [Phe224Trp] (Homo sapiens, UniProt O15530, F224W); assay: PDK1 activity assay with T308tide; settings: catalytic domain 50-360
T2 construct: the catalytic domain of PDK1 (50-359) produced in SF9 insect cells; His-tag (N, cleaved yes); made in house; host or cells: insect cells (baculovirus)
T2 sequence (O15530 50-359 F224W): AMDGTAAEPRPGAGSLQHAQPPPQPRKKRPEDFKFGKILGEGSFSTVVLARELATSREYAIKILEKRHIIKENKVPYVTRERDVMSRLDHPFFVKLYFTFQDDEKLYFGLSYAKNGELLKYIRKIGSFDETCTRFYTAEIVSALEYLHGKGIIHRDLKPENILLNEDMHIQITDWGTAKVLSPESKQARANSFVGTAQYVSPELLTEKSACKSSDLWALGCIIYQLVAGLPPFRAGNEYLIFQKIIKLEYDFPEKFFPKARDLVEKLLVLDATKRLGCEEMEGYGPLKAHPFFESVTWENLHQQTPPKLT
Method: (§2) FIG. 6—A mutation at Thr226 in PDK1 uncouples the ligand binding to the HM/PIF-pocket from activation of the kinase. The catalytic domain (CD) of PDK1 50-360 and its mutants Phe224Trp and Thr226Trp were expressed in insect cells and purified. (A) PDK1 activity was measured in the presence or absence of the HM-polypeptide PIFtide or compound 1 using T308tide as a substrate. PDK1 CD wt and PDK1 [Phe224Trp] were activated by PIFtide and compound 1 whereas PDK1 CD [Thr226Trp] mutant was not activated. (B,C,D,E) PDK1 [Phe224Trp] and PDK1 [Thr226Trp] retain significant binding to P-HM polypeptides and PIFtide. Surface plasmon resonance measurements were carried out on a BiaCore system to evaluate the binding affinities of PDK1 CD wt, PDK1 [Phe224Trp] and PDK1 [Thr226Trp] to HM-polypeptides. Biotin-P-HM-polypeptide derived from S6K1 was immobilized on a streptavidin-coated sensor chip and the specific interaction with PDK1 was recorded. (B) The direct binding of PDK1 CD wt to biotin-P-HM-S6K was recorded at the indicated concentrations of PDK1 CD. The Kd (0.05 μM) was estimated based on the response units obtained at each concentration at equilibrium (insert).
as §1
(§3) PDK1 activity assay was performed in a 20 μl mix containing 50 mM Tris-HCl pH 7.5, 0.05 mg/ml BSA, 0.1% β-mercaptoethanol, 10 mM MgCl2, 100 μM [γ^32P]ATP (5-50 cpm/pmol), 0.003% Brij, 150 ng PDK1, and T308tide (from 0.05 to 1 mM). PDK1 specific activity was approximately 5 U/mg (when measured at 1 mM T308tide). The effect of small compounds on PDK1 was repeated with proteins from different purification batches and with different protein constructs, comprising the full length protein or the catalytic domain alone, with similar results. […] This variability may be due to the PIFtide/compound-stimulated autophosphorylation of the activation loop in certain preparations having less than a 1:1 molar phosphorylation stoichiometry at this site.

[3] = biological target: T3, PDK1 [Thr226Trp] (Homo sapiens, UniProt O15530, T226W); assay: PDK1 activity assay with T308tide; settings: catalytic domain 50-360
T3 construct: the catalytic domain of PDK1 (50-359) produced in SF9 insect cells; His-tag (N, cleaved yes); made in house; host or cells: insect cells (baculovirus)
T3 sequence (O15530 50-359 T226W): as the sequence (O15530 50-359 F224W) above, with W175F, T177W counted along it
Method: as §2, §1, §3

PKCξ (%) activity ([1]; 20 μM compound) [%]	PKCξ (%) activity ([1]; 200 μM compound) [%]	activation of PDK1 [Phe224Trp] (in words) [2]	activation of PDK1 [Thr226Trp] (in words) [3]	effect on PKCζ activity (in words) ([1]; 20 μM)	inhibition of PKCζ (in words) ([1]; panel, concentration not given)	Compound
104	86	–	–	–	–	COC(=O)CSC(CC(=O)c1ccc(Cl)cc1)c1ccccc1 (stereo not shown) [Compound 2]
–	–	activated	not activated	–	–	REPRILSEEEQEMFRDFDYIADWC [PIFtide, reference compound]
94	21	activated	not activated	no significant effect	inhibited PKCζ	O=C(O)CSC(CC(=O)c1ccc(Cl)cc1)c1ccccc1 (stereo not shown) [Compound 1]
